≈ marks a conversion by molar mass, not a printed value. Where “and” joins values, the source holds several entries; their conditions need not be identical. Equal values may be shown once. Read-outs that look alike come from different tables or passages of the source. Numbered stars: 1 amine (or outer) side, 2 acyl side, 3 side chain; on linkers, the order of the positions; unused ones are H or OH. Bridge positions count the residues as written; N and C are the ends. Square brackets hold non-standard residues; d marks the D form. Peptide text beside a SMILES is read from it. * marks the point of attachment. ξ: configuration not given here. X1 = CCC1CC(C(=O)[*:2])N([*:1])C1; Butanoyl(2-oxo) = CCC(=O)C(=O)*; ξPro(4ξ-Me) = CC1CNC(C(=O)O)C1; NMeT = CN[CH](C(=O)O)[CH](C)O; NMeL = CN[CH](CC(C)C)C(=O)O; hLeu = CC(C)CC[CH](N)C(=O)O; NMeV = CN[CH](C(=O)O)C(C)C
What was measured:
[1] = tested on: M. tuberculosis (Mtb) strain H37Ra; test: microbe, parasite or virus in culture; format: cell-based; details: Mycobacterium tuberculosis, read-out: MIC Mtb H37Ra
[2] = tested on: M. tuberculosis (Mtb) strain H37Rv; test: microbe, parasite or virus in culture; format: cell-based, Mycobacterium tuberculosis
[3] = tested on: M. smegmatis (Msmeg) strain mc^2155; test: microbe, parasite or virus in culture; format: cell-based; details: Mycolicibacterium smegmatis, MC^2155, read-out: MIC M. smegmatis mc^2155
[4] = tested on: M. smegmatis mc^2155 GM^R; test: microbe, parasite or virus in culture; format: cell-based; details: Mycolicibacterium smegmatis, MC^2155, read-out: MIC M. smegmatis mc^2155 GM^R
[5] = tested on: M. marinum (Mm) strain M (ATCC BAA-535); test: microbe, parasite or virus in culture; format: cell-based; details: Mycobacterium marinum, ATCCBAA535, read-out: MIC M. marinum strain M
CHO-K1 cells = test: cells; format: cell-based, Chinese hamster (Cricetulus griseus); details: Cricetulus griseus, CHO-K1, 120 h, read-out: IC50 CHO-K1
[6] = biological target: M. smegmatis DnaN (msDnaN) (Mycolicibacterium smegmatis, UniProt A0QND6); test: biochemical; format: binding; details: for Response (Average): MST source data, runs #1-#3, listed as MP A
Chain of M. smegmatis DnaN (msDnaN) (A0QND6 whole entry, looked up): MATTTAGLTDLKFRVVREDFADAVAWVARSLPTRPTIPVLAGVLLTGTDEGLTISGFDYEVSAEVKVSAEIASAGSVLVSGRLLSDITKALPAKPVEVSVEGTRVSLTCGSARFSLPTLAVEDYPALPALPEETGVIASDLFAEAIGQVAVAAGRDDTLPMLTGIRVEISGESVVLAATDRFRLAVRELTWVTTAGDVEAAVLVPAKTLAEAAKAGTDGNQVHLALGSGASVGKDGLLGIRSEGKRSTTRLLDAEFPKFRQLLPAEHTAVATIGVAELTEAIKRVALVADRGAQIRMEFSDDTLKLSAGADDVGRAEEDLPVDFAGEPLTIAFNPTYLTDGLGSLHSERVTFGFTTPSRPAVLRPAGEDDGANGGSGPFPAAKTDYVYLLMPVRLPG

S. aureus Newman = test: microbe, parasite or virus in culture; format: cell-based; details: Staphylococcus aureus, read-out: MIC S. aureus Newman
B. subtilis DSM 10 = test: microbe, parasite or virus in culture; format: cell-based; details: Bacillus subtilis, DSM10, read-out: MIC B. subtilis DSM 10
E. coli BW25113 = test: microbe, parasite or virus in culture; format: cell-based; details: Escherichia coli, BW25113, read-out: MIC E. coli BW25113
C. freundii DSM 30039 = test: microbe, parasite or virus in culture; format: cell-based; details: Citrobacter freundii, DSM30039, read-out: MIC C. freundii DSM 30039
A. baumannii DSM 30008 = test: microbe, parasite or virus in culture; format: cell-based; details: Acinetobacter baumannii, DSM30008, read-out: MIC A. baumannii DSM 30008
[7] = tested on: M. smegmatis mc^2155 reporter strain harboring PrecA-LUX; details: for luminescence induction: RecA reporter, ciprofloxacin 0.06 µg/mL, MPA 0.125 µg/mL
[8] = tested on: M. smegmatis mc^2155 reporter strain harboring PradA-LUX; details: for luminescence induction: RadA reporter, ciprofloxacin 0.06 µg/mL, MPA 0.125 µg/mL
[9] = tested on: M. tuberculosis (Mtb) strain H37Rv; details: cited from earlier work

## CCC(=O)C(=O)N(C)C(C(=O)N1CC(CC)CC1C(=O)N(C)C1C(=O)NC(CC(C)C)C(=O)N2CC(C)CC2C(=O)NC(CCC(C)C)C(=O)N(C)C(C(C)C)C(=O)N2CCCC2C(=O)N(C)C(CC(C)C)C(=O)NCC(=O)OC1C)C(C)C (centres unmarked) [Mycoplanecin A] ({Butanoyl(2-oxo)}-[NMeV][X1][NMeT]L[ξPro(4ξ-Me)][hLeu][NMeV]P[NMeL]G; ester 3-C; configuration not given here)
[1]
  MIC: 0.03 µg/mL (≈ 0.0253 µM)
[2]
  lower MIC against Mtb H37Rv than initially reported: four-fold
[2]; Mycobacterium tuberculosis, H37RV, read-out: MIC Mtb H37Rv
  MIC: 0.102 µg/mL (≈ 0.0862 µM)
[3]
  MIC: 0.0625 µg/mL (≈ 0.0528 µM)
[4]
  MIC: 4 µg/mL (≈ 3.38 µM)
[5]
  MIC: 0.5 µg/mL (≈ 0.422 µM)
CHO-K1 cells
  IC50: > 37 µg/mL
[6]
  Kd: 95.4 ± 58 nM
[6]; Dose 1.22E-08 (unit not given)
  Response (Average): 901.8 and 900.043 and 900.321
[6]; Dose 1.25E-05 (unit not given)
  Response (Average): 916.3 and 910.333 and 908.121
[6]; Dose 1.53E-09 (unit not given)
  Response (Average): 900.5 and 901.137 and 897.639
[6]; Dose 1.56E-06 (unit not given)
  Response (Average): 912 and 910.977 and 908.315
[6]; Dose 1.95E-07 (unit not given)
  Response (Average): 911.4 and 903.026 and 901.872
[6]; Dose 2.44E-08 (unit not given)
  Response (Average): 900.5 and 898.574 and 901.47
[6]; Dose 2.50E-05 (unit not given)
  Response (Average): 912.5 and 912.466 and 910.671
[6]; Dose 3.05E-09 (unit not given)
  Response (Average): 907.2 and 900.824 and 900.843
[6]; Dose 3.13E-06 (unit not given)
  Response (Average): 913.2 and 908.487 and 910.005
[6]; Dose 3.91E-07 (unit not given)
  Response (Average): 910.5 and 900.599 and 903.733
[6]; Dose 4.88E-08 (unit not given)
  Response (Average): 904.4 and 896.349 and 895.973
[6]; Dose 5.00E-05 (unit not given)
  Response (Average): 912 and 911.551 and 911.531
[6]; Dose 6.10E-09 (unit not given)
  Response (Average): 899.2 and 900.167 and 896.514
[6]; Dose 6.25E-06 (unit not given)
  Response (Average): 912 and 910.662 and 909.72
[6]; Dose 7.81E-07 (unit not given)
  Response (Average): 913.8 and 908.369 and 909.33
[6]; Dose 9.77E-08 (unit not given)
  Response (Average): 902.5 and 896.716 and 900.856
S. aureus Newman
  MIC: > 64 µg/mL
B. subtilis DSM 10
  MIC: > 64 µg/mL
E. coli BW25113
  MIC: > 64 µg/mL
C. freundii DSM 30039
  MIC: > 64 µg/mL
A. baumannii DSM 30008
  MIC: > 64 µg/mL
[7]; 2x MIC, listed as MP A
  induction of SOS response through RecA (luminescence): Strong induction of luminescence
[7]; elapsed time 0:00:00
  luminescence induction: 1234 RLU
[7]; elapsed time 3:00:00
  luminescence induction: 8420 RLU
[7]; elapsed time 6:00:00
  luminescence induction: 19572 RLU
[7]; elapsed time 9:00:00
  luminescence induction: 19402 RLU
[7]; elapsed time 12:00:00
  luminescence induction: 19729 RLU
[7]; elapsed time 15:00:00
  luminescence induction: 23383 RLU
[7]; elapsed time 18:00:00
  luminescence induction: 24012 RLU
[7]; elapsed time 21:00:00
  luminescence induction: 23254 RLU
[7]; elapsed time 24:00:00
  luminescence induction: 21764 RLU
[7]; elapsed time 27:00:00
  luminescence induction: 21831 RLU
[7]; elapsed time 30:00:00
  luminescence induction: 22602 RLU
[7]; elapsed time 33:00:00
  luminescence induction: 24786 RLU
[7]; elapsed time 36:00:00
  luminescence induction: 30979 RLU
[7]; elapsed time 39:00:00
  luminescence induction: 43998 RLU
[7]; elapsed time 42:00:00
  luminescence induction: 72104 RLU
[7]; elapsed time 45:00:00
  luminescence induction: 126348 RLU
[7]; elapsed time 48:00:00
  luminescence induction: 167800 RLU
[7]; elapsed time 51:00:00
  luminescence induction: 276102 RLU
[7]; elapsed time 54:00:00
  luminescence induction: 398120 RLU
[7]; elapsed time 57:00:00
  luminescence induction: 382129 RLU
[7]; elapsed time 60:00:00
  luminescence induction: 236913 RLU
[7]; elapsed time 63:00:00
  luminescence induction: 123029 RLU
[7]; elapsed time 66:00:00
  luminescence induction: 65825 RLU
[7]; elapsed time 69:00:00
  luminescence induction: 39152 RLU
[7]; elapsed time 72:00:00
  luminescence induction: 26573 RLU
[7]; elapsed time 75:00:00
  luminescence induction: 20127 RLU
[7]; elapsed time 78:00:00
  luminescence induction: 16583 RLU
[7]; elapsed time 81:00:00
  luminescence induction: 14319 RLU
[7]; elapsed time 84:00:00
  luminescence induction: 12316 RLU
[7]; elapsed time 87:00:00
  luminescence induction: 11375 RLU
[8]; 2x MIC, listed as MP A
  induction of DNA repair through RadA (luminescence): Strong induction of luminescence
[8]; elapsed time 0:00:00
  luminescence induction: 121 RLU
[8]; elapsed time 3:00:00
  luminescence induction: 1545 RLU
[8]; elapsed time 6:00:00
  luminescence induction: 2517 RLU
[8]; elapsed time 9:00:00
  luminescence induction: 2232 RLU
[8]; elapsed time 12:00:00
  luminescence induction: 2473 RLU
[8]; elapsed time 15:00:00
  luminescence induction: 2636 RLU
[8]; elapsed time 18:00:00
  luminescence induction: 2684 RLU
[8]; elapsed time 21:00:00
  luminescence induction: 2416 RLU
[8]; elapsed time 24:00:00
  luminescence induction: 2295 RLU
[8]; elapsed time 27:00:00
  luminescence induction: 2095 RLU
[8]; elapsed time 30:00:00
  luminescence induction: 2147 RLU
[8]; elapsed time 33:00:00
  luminescence induction: 2090 RLU
[8]; elapsed time 36:00:00
  luminescence induction: 2617 RLU
[8]; elapsed time 39:00:00
  luminescence induction: 3126 RLU
[8]; elapsed time 42:00:00
  luminescence induction: 4043 RLU
[8]; elapsed time 45:00:00
  luminescence induction: 5111 RLU
[8]; elapsed time 48:00:00
  luminescence induction: 7463 RLU
[8]; elapsed time 51:00:00
  luminescence induction: 8233 RLU
[8]; elapsed time 54:00:00
  luminescence induction: 11519 RLU
[8]; elapsed time 57:00:00
  luminescence induction: 17058 RLU
[8]; elapsed time 60:00:00
  luminescence induction: 25987 RLU
[8]; elapsed time 63:00:00
  luminescence induction: 36814 RLU
[8]; elapsed time 66:00:00
  luminescence induction: 80633 RLU
[8]; elapsed time 69:00:00
  luminescence induction: 73655 RLU
[8]; elapsed time 72:00:00
  luminescence induction: 45431 RLU
[8]; elapsed time 75:00:00
  luminescence induction: 26035 RLU
[8]; elapsed time 78:00:00
  luminescence induction: 15293 RLU
[8]; elapsed time 81:00:00
  luminescence induction: 10478 RLU
[8]; elapsed time 84:00:00
  luminescence induction: 7153 RLU
[8]; elapsed time 87:00:00
  luminescence induction: 4415 RLU
[9]
  MIC against Mtb H37Rv initially reported: 0.39 µg/mL (≈ 0.33 µM)
